In US20250367191A1, “TREATMENT OF MITOCHONDRIAL DISEASES WITH A CNS-PENETRANT SGC STIMULATOR ZAGOCIGUAT” (Tisento Therapeutics Inc., priority 2022, published 2025):

Tests used:
[1] = tested on: mitochondrial disease patient cells; details: cited from earlier work
rats [2] = details: cited from earlier work
rats [3] = details: cited from earlier work; remark: listed apart in the source
[4] = Open-label single-arm study in MELAS (NCT04475549): safety and tolerability; type: in vivo, human; details: 15 mg QD for 29 days, patients with MELAS
Text: This study was completed at 5 investigative sites in the United States. 8 participants completed the study. This study was an open-label, single-arm study evaluating the safety, tolerability, PK, and pharmacodynamics (PD) of Compound I when administered for up to 29 days to participants diagnosed with MELAS. Because this was the first study evaluating Compound I in a patient population, the primary objective was safety and tolerability. The overall study duration for participants was a maximum of 75 days, including the screening, treatment and follow up periods (ClinicalTrials.gov identifier NCT04475549).
The primary objective of the trial was to evaluate the safety and tolerability of Compound I when administered to a patient population of subjects with MELAS, by measuring AEs, SAEs and TEAEs leading to drug discontinuation.
Compound I is a CNS-active investigational drug. Although Compound I and other similar drugs in this class have not been associated with an increased risk of suicidal thinking or behavior, it was considered it important to monitor for such ideation or behavior before and during this clinical study. Therefore, participants were appropriately monitored and closely observed for suicidal ideation and behavior or any other unusual change in behavior. […]
A complete physical examination was to include examination and assessment of the following: general appearance, lymph nodes, nervous system; cardiovascular system; head, eyes, ears, nose, throat and skin; respiratory system, neck, mental status, abdomen/liver/spleen and musculoskeletal system. […] Clinically relevant findings that were present before study drug initiation on Day 1 were recorded as part of the participant's medical history. Beginning after study drug initiation on Day 1, new clinically relevant findings or worsening of an earlier finding were recorded as an AE. Height (cm) was measured only at Screening. Weight (kg) was recorded throughout the study. Body mass index was calculated and recorded at Screening.
All BP and pulse measurements were obtained with an automated BP device (left arm was preferred) prior to blood draws (or ≥10 m after a blood draw, if necessary). Supine BP was taken at Screening (only) and recorded as the average of 2 measurements obtained at 2-minute intervals after the participant had rested quietly in a semi-recumbent/supine position for ≥5 minutes. Orthostatic vital signs were taken at all scheduled visits and participant was to rest quietly in a supine/semi-recumbent position for ≥5 minutes before supine BP and pulse measurements were recorded, then assume sitting position for ≥1 minute, and finally assume a standing position for 2 (±1) minutes before standing measurements were recorded. […]

[5] = Clinical trial in patients with stable schizophrenia: PK and safety; type: in vivo, human; details: total oral daily dosages up to 60 mg per day
[6] = tested on: participants diagnosed with MELAS; assay: MELAS study: plasma biomarkers of mitochondrial dysfunction (lactate, GDF-15, FGF-21); type: in vivo, human
Experimental: Plasma and serum samples for biomarkers were collected from each participant. These biomarkers tested the target engagement of Compound I as well as the impact of the compound on disease. Plasma or serum samples were analyzed for concentrations of growth differentiation factor 15 (GDF-15), lactate, pyruvate, alanine, neurofilament light chain (NFL), vascular cell adhesion molecule 1, interleukin-1beta, asymmetric dimethylarginine (ADMA), L arginine, and other biomarkers relevant to the pathophysiology of mitochondrial disease, as well as their response to Compound I.
(§1) This change was observed across all brain regions of interest. Effect size throughout this disclosure is defined as the means change from baseline in a particular parameter that is being measured, divided by the standard deviation. Effect sizes closer to 1 or −1 (positive or negative dependent on the direction of movement for the specific parameter, i.e. +0.8 to +1.0 or −0.8 to −1.0) are usually considered large. Effect sizes between 0.5 and 0.8 or −0.5 and −0.8 (positive or negative dependent on the direction of movement for the specific parameter) are usually considered moderate. Effect sizes closer to below 0.5 or −0.5 (positive or negative dependent on the direction of movement for the specific parameter) are usually considered small.

[7] = tested on: participants diagnosed with MELAS; assay: MELAS study: cerebral blood flow by arterial spin labeling (ASL); type: in vivo, human; details: 15 mg QD
Experimental: Two exploratory functional neuroimaging modalities, arterial spin labeling (ASL) and functional magnetic resonance imaging (fMRI), were used to measure the potential PD effects of Compound I in the brain. While ASL quantifies regional CBF during the resting state, fMRI is a relative measure based on the blood-oxygen-level-dependent (BOLD) effect and was conducted during both a resting state and during a visual stimulus to measure brain activity.
Each individual MRI scanning session took approximately 45 minutes (maximum of ˜1 hour).
as §1

mice = mice pretreated, compared with vehicle-treated mice; cited from earlier work
[8] = plasma, trend towards reduction

Fc1ccccc1Cc1nc(-c2nc(C(F)(F)F)n[nH]2)cn2ccnc12 [Compound I, zagociguat]
abundance of available adenosine triphosphate (ATP) ([1]; mitochondrial disease patient cells): increasing the abundance of available adenosine triphosphate (ATP)
expression levels of DDAH2 ([1]; patient cells): increased expression levels
expression levels of TFAM ([1]; patient cells): increased expression levels
gamma power in combination with donepezil (rats [2]; 10 mg/kg orally + 1 mg/kg donepezil, 1-2 hours post-dose): further increased
qEEG gamma oscillations / gamma power compared to vehicle dosing (rats [2]; oral suspension): increasing gamma oscillations
gamma power (rats [2]; orally at 10 mg/kg): increased gamma power
brain metabolite NAA+NAAG deficits (rats [3]; chronic dosing): reversed
dendritic spine density (rats [3]; chronic dosing): improved dendritic spine density
hippocampal long term potentiation (LTP) (rats [3]; chronic dosing): restored
behavioral task performance (rats [3]; pharmacologically impaired rats): improved behavioral task performance
neurotrophic factors pCREB and BDNF (rats [3]; rat, in vivo): increased neurotrophic factors
SAEs [4]: no SAEs observed
adverse events leading to treatment discontinuation [4]: no adverse events leading to treatment discontinuation
safety signals on clinical labs, vital signs, ECGs, or suicidal rating scale [4]: No safety signals
tolerability [4]: well tolerated
PK, dose proportionality [5]: proportional PK
safety and tolerability [5]: safe and well tolerated
participants with reductions in GDF-15 ([6]; in vivo): 4 of 8
participants with reductions in lactate ([6]; in vivo): 6 of 8
reductions in GDF-15, greatest ([6]; participants with higher baseline concentrations): up to 39%
FGF-21, effect size [6, 8]: −0.2
GDF-15, effect size [6, 8]: −0.5
Lactate concentrations, effect size [6, 8]: −0.5
CBF on day 29 compared to baseline (day 1) ([7]; ASL, all brain regions of interest): increase of CBF
patients with increased CBF between day 1 and day 29 ([7]; individual patients): 5 of the 8
rotenone-induced astrogliosis (mice): lower rotenone-induced astrogliosis
